Among the data in article PMC12040169 (PLOS Biology, 2025) are viability values, retold here.

For orientation: viability means a read-out of living cells in per cent, often relative to untreated cells.

One series is described as follows: in vitro. To be noted: human, hela cells, % viability.
For `CS(=O)(=O)c1ccc(-c2cnc(N)c(NCc3ccncc3)n2)cc1` [CBK063647], the viability at 28.5 h, 10 µM was found to be 105%.

For `CN(C)C(=O)c1cccc(CNc2ncnc3c2cnn3CCC#N)c1` [CBK305955], the viability at 28.5 h, 10 µM amounted to 88.3%.

As to `CCOC(=O)CN1CCCN(c2ccnc(OC3CCCCC3)n2)CC1` [CBK083864], the viability at 28.5 h, 10 µM came to 90.9%.

As to `COCc1cc(C)nc2c1C(=O)NC(c1ccccc1C(=O)O)N2Cc1ccccc1` (stereo not shown) [CBK286599], the viability at 28.5 h, 10 µM amounted to 92.3%.

On to `O=S(=O)(NCc1ccc(CNS(=O)(=O)c2ccccc2)cc1)c1ccccc1` [CBK265471], for which the viability at 28.5 h, 10 µM came out at 113%.

For the compound `Cc1cc(C(=O)N2CCc3c(sc4ncnc(N)c34)C2)on1` [CBK306067], the viability at 28.5 h, 10 µM came to 85.1%.

`CCC(NC(=O)c1ccc(C(C)(C)C)[nH]c1=O)c1ccc(OC)cc1` (stereo not shown) [CBK282940]: the viability at 28.5 h, 10 µM came to 87.8%.

In the case of `O=C(c1cccs1)N1CCC[C@H]1[C@H](O)c1nccs1` [CBK284285], the viability at 28.5 h, 10 µM amounted to 92.1%.

For `O=C(c1cccnc1)N1CCN(CC2(c3ccccc3)CC2)CC1` [CBK282906], the viability at 28.5 h, 10 µM is 94.5%.

Turning to `O=S(=O)(c1ccccc1)N1CC2(CCNCC2)c2ccccc21` [CBK137413], the viability at 28.5 h, 10 µM turned out to be 84.2%.

For `Cc1cc(-c2ccc(=O)n(CCNC(=O)C3CCCCC3)n2)c(C)o1` [CBK284522], the viability at 28.5 h, 10 µM is 95.7%.

Take `O=C(c1ccccc1)c1ccc2[nH]nnc2c1` [CBK091608]: the viability at 28.5 h, 10 µM turned out to be 94.2%.

As to `CCn1c(CN2CCN(Cc3ccc4c(c3)OCO4)CC2)n[nH]c1=S` [CBK013828], the viability at 28.5 h, 10 µM is 105%.

As for `NS(=O)(=O)c1ccc(CCNC(=O)c2cc(Br)cnc2N2CCOCC2)cc1` [CBK076225], the viability at 28.5 h, 10 µM was found to be 85.1%.

For `CCC(CO)Nc1cncc(-c2cccc(N)c2)n1` (stereo not shown) [CBK065278], the viability at 28.5 h, 10 µM stood at 103%.

Regarding `CCN(CC)CCCNc1c([N+](=O)[O-])c(=O)n(C)c2ccccc12` [CBK264893], the viability at 28.5 h, 10 µM worked out at 112%.

As to `O=S1(=O)CCN(Cc2ccc3c(c2)OCCCO3)CC1` [CBK074831], the viability at 28.5 h, 10 µM came out at 101%.

`Nc1cc2cccnc2c(-c2cccc(C(F)(F)F)c2)n1` [CBK081177]: the viability at 28.5 h, 10 µM was determined as 106%.

Consider `CC(C)CCn1c(=O)c(C(=O)Nc2ccccc2S(N)(=O)=O)c(O)c2ccccc21` [CBK262294], for which the viability at 28.5 h, 10 µM amounted to 104%.

Take `COc1ccccc1N(CC(=O)Nc1ccc2c(c1)oc1ccccc12)S(=O)(=O)c1ccccc1` [CBK264737]: the viability at 28.5 h, 10 µM came out at 87.8%.

As for `c1cnc2[nH]c(C3CCNCC3)c(CN3CCCCCC3)c2c1` [CBK285057], the viability at 28.5 h, 10 µM stood at 102%.

With `CCC1CCCCN1C(=O)c1ccc(C)c(Br)c1` (stereo not shown) [CBK081559], the viability at 28.5 h, 10 µM was found to be 100%.

`CCCCCC1=NN(C(=O)c2ccccc2Br)C(O)(C(F)(F)F)C1` (stereo not shown) [CBK027223]: the viability at 28.5 h, 10 µM was 104%.

As to `CCCC/C=C/c1cnc(Nc2ccc(N3CCOCC3)cc2)c2nccn12` [CBK091239], the viability at 28.5 h, 10 µM stood at 91.3%.

Regarding `CCC(C(=O)Nc1cc(OC)c(OC)cc1C(=O)O)c1ccccc1` (stereo not shown) [CBK266794], the viability at 28.5 h, 10 µM was determined as 106%.

On to `O=C(NCCc1ccsc1)N1CCN(c2ccncc2)CC1` [CBK305595], for which the viability at 28.5 h, 10 µM was determined as 102%.

As for `Cc1cc(C2CCCCCN2Cc2c(C)nn(C)c2C)on1` (stereo not shown) [CBK282967], the viability at 28.5 h, 10 µM is 99.7%.

Regarding `Cc1ccc(S(=O)(=O)OCCOS(=O)(=O)c2ccc(C)cc2)cc1` [CBK260986], the viability at 28.5 h, 10 µM is 96.2%.

On to `CN1CCN(CCCNC(=O)c2ccc(-c3ccc(C(=O)N(C)C)cc3)nc2)CC1` [CBK158343], for which the viability at 28.5 h, 10 µM was found to be 95%.

With `Cc1ccc(C)n1NC(=O)c1ccccc1[N+](=O)[O-]` [CBK266151], the viability at 28.5 h, 10 µM worked out at 104%.

Take `Cc1nc2ccccc2n1C(F)(F)C(F)F` [CBK022023]: the viability at 28.5 h, 10 µM is 116%.

With `CCN(Cc1ccccc1)C(=O)NCCc1c[nH]cn1` [CBK155220], the viability at 28.5 h, 10 µM was found to be 92.8%.

As for `Cc1ccc(S(=O)(=O)Oc2c(C=C3C(=O)CC(C)(C)CC3=O)[nH]c3ccccc23)cc1` [CBK263464], the viability at 28.5 h, 10 µM came to 94.4%.

In the case of `Cc1nn(C)cc1C(=O)NC1CCCC1` [CBK057851], the viability at 28.5 h, 10 µM amounted to 112%.

Consider `COCCN1C(=O)C2(CC(=O)N(CCc3scnc3C)C2=O)c2cc(Cl)ccc21` (stereo not shown) [CBK075321], for which the viability at 28.5 h, 10 µM was determined as 93.6%.

Consider `CCCc1[nH]nc(O)c1CCc1ccccc1C(F)(F)F` [CBK075081], for which the viability at 28.5 h, 10 µM is 93.9%.

Take `O=C(/C=C/c1ccco1)NC(=S)Nc1ccccc1[N+](=O)[O-]` [CBK264375]: the viability at 28.5 h, 10 µM is 117%.

As for `O=C1CN(c2cccc(C(F)(F)F)c2)C(=O)N1c1ccc(Cl)cc1` [CBK122769], the viability at 28.5 h, 10 µM was determined as 108%.

As for `O=c1c2[nH]cc(-c3ccccc3)c2ncn1CCc1ccccc1` [CBK288025], the viability at 28.5 h, 10 µM was determined as 76.9%.

On to `NC(=O)Cn1cc(CN2CCC(c3ccccc3)C2)c2ccccc21` (stereo not shown) [CBK282803], for which the viability at 28.5 h, 10 µM amounted to 92.3%.

Turning to `OC(c1cccs1)C1CCN(Cc2ccc(-n3cncn3)cc2)CC1` (stereo not shown) [CBK306523], the viability at 28.5 h, 10 µM was found to be 97.8%.

For the compound `CCN1CCOC(CNc2ncnc3c2CCC3)C1` (stereo not shown) [CBK304811], the viability at 28.5 h, 10 µM is 106%.

For the compound `O=C(C1CCN(Cc2ccc(F)cc2)CC1)N1CCN(C/C=C/c2ccccc2)CC1` [CBK264325G], the viability at 28.5 h, 10 µM stood at 96.5%.

Consider `Cc1ccc(-c2cc(C(=O)O)[nH]n2)cc1` [CBK265462], for which the viability at 28.5 h, 10 µM is 101%.

Consider `CCc1c(C)c2cc(Cl)c(O)c(CN3CCCC3)c2oc1=O` [CBK267099], for which the viability at 28.5 h, 10 µM stood at 105%.

For the compound `Cn1c(N2CC[C@H](O)C2)nc2cc(C(=O)NCCn3cccn3)ccc21` [CBK307328], the viability at 28.5 h, 10 µM stood at 111%.

`Cc1c(NC(=S)NC(=O)C(C)C)cccc1-c1nc2ncccc2o1` [CBK269712]: the viability at 28.5 h, 10 µM is 98.3%.

For `CCc1nc2ccc(C(=O)N(C)CCN(C)C)cn2c1N(C)C(=O)C1CCCCC1` [CBK145771], the viability at 28.5 h, 10 µM turned out to be 93.8%.

Consider `Cc1nccn1CC(C)C(=O)NCCN(C)C1CCCCC1` (stereo not shown) [CBK282040], for which the viability at 28.5 h, 10 µM came out at 102%.

For `O=C1N[C@@H](Cc2ccc(F)cc2)C(=O)N2CCN(C(=O)c3cccc(F)c3)C[C@H]12` [CBK289600], the viability at 28.5 h, 10 µM stood at 111%.

On to `O=S(=O)(c1ccccc1)C1C2C=CC(COC3CCCCO3)(O2)C1S(=O)(=O)c1ccccc1` (stereo not shown) [CBK020045], for which the viability at 28.5 h, 10 µM came out at 92.6%.

As to `CCOC(=O)C1CCCN(CCC(=O)Nc2cc(C)ccc2C)C1` (stereo not shown) [CBK264287C], the viability at 28.5 h, 10 µM stood at 95.7%.

In the case of `O=C(c1cnoc1-c1ccc(F)cc1)N1CCCC1` [CBK153707], the viability at 28.5 h, 10 µM came out at 97.9%.

On to `CN(C)S(=O)(=O)c1ccc(CCC(=O)O)cc1` [CBK287216], for which the viability at 28.5 h, 10 µM stood at 92%.

In the case of `COc1ncccc1-c1cccnc1-n1ccnc1` [CBK176872], the viability at 28.5 h, 10 µM was 92.6%.

Consider `O=C1NCC(C2CCN(Cc3ccccc3)CC2)Oc2ccccc21` (stereo not shown) [CBK282314], for which the viability at 28.5 h, 10 µM worked out at 85.9%.

As to `O=C(COc1ccc(I)cc1)N/N=C/c1cccc([N+](=O)[O-])c1` [CBK262211], the viability at 28.5 h, 10 µM was 95.2%.

For the compound `Cc1ccccc1-c1ccc(C(=O)Nc2ccc3c(c2)OCO3)c(N2CCN(C(=O)c3ccco3)CC2)n1` [CBK076196], the viability at 28.5 h, 10 µM was 101%.

For the compound `Cc1ccc(Oc2ccc(C(F)(F)F)cc2[N+](=O)[O-])c(Br)c1` [CBK002817], the viability at 28.5 h, 10 µM amounted to 93.1%.

With `CNC(=O)C1(Cc2ccc(-c3ccccc3)cc2)CCN(C(=O)CC2CCCCC2)CC1` [CBK285763], the viability at 28.5 h, 10 µM is 112%.

With `CCCc1nc(CN2CCNC(=O)C2c2ccccc2C(F)(F)F)no1` (stereo not shown) [CBK304123], the viability at 28.5 h, 10 µM is 93.2%.

For the compound `COc1ccc(N(CC(=O)N2CCN(C)CC2)S(=O)(=O)c2ccc(C)c([N+](=O)[O-])c2)cc1` [CBK264051], the viability at 28.5 h, 10 µM came to 89.8%.

`COc1ccc(CNc2oc(-c3ccccc3)nc2S(=O)(=O)c2ccccc2)cc1` [CBK267669]: the viability at 28.5 h, 10 µM stood at 105%.

Consider `CCCCCCSc1ccc(C(=O)CCCN2CCOCC2)cc1` [CBK010344], for which the viability at 28.5 h, 10 µM came out at 116%.

In the case of `c1cncc(COc2nccnc2OC2CCN(CCOc3cccnc3)CC2)c1` [CBK083181], the viability at 28.5 h, 10 µM is 92.1%.

`CCC(=O)N1CCCCC(NS(=O)(=O)c2ccc(-n3cccn3)cc2)C1` (stereo not shown) [CBK307398]: the viability at 28.5 h, 10 µM amounted to 82.5%.

For the compound `O=S(=O)(c1c(Cl)cccc1Cl)n1ccc2c(N3CCNCC3)nccc21` [CBK059060C], the viability at 28.5 h, 10 µM was found to be 91.4%.

As to `CCC1c2ccc(C)n2CCN1C(=O)c1cc(-c2ccccn2)n[nH]1` (stereo not shown) [CBK283225], the viability at 28.5 h, 10 µM was 86.4%.

For the compound `Cn1cc(CN2C3CCC(C3)[C@@H]2COc2ccc(F)cc2)cn1` (stereo partly shown) [CBK282257], the viability at 28.5 h, 10 µM is 106%.

In the case of `Cc1cc(Oc2ccccc2)nc(Oc2ccc(=O)n(-c3ccccc3)n2)n1` [CBK269843], the viability at 28.5 h, 10 µM was 106%.

Turning to `CS(=O)(=O)N(CC(=O)Nc1ccc2ccccc2c1)c1ccc(Cl)cc1Cl` [CBK267501], the viability at 28.5 h, 10 µM is 87.6%.

On to `CC(C(=O)O)N(c1ccc(Cl)cc1)S(C)(=O)=O` (stereo not shown) [CBK267945], for which the viability at 28.5 h, 10 µM turned out to be 111%.

In the case of `CC[C@H]1CN(C(=O)C2CC2)CC[C@H]1CC(=O)NCc1ccc2c(c1)OCO2` [CBK289133], the viability at 28.5 h, 10 µM amounted to 91.9%.

For `O=C(CC1(O)C(=O)N(Cc2ccc3c(c2)OCO3)c2ccccc21)c1ccccn1` (stereo not shown) [CBK269725], the viability at 28.5 h, 10 µM was 94.2%.

Turning to `CCOc1ccc(-c2nc(CSc3n[nH]c(=O)n3Cc3ccccc3)cs2)cc1` [CBK296737], the viability at 28.5 h, 10 µM turned out to be 102%.

In the case of `O=C(Cc1c[nH]cn1)N1CCC2(CCN(Cc3ccccc3)C2)C1` (stereo not shown) [CBK137147], the viability at 28.5 h, 10 µM worked out at 91%.

Staying with this series, now noted: human, hela cells, % viability, bulk resorufin, single well.
`O=c1[nH]c(=S)[nH]c(O)c1CN1CCOCC1` [CBK262493]: the viability at 28.5 h, 10 µM is 98.7%.

In the case of `CSc1cc(C)c2c(c1)COC1(CCN(C(=O)Nc3cccs3)CC1)O2` [CBK060795], the viability at 28.5 h, 10 µM worked out at 90.6%.

`O=C1NC(=O)C(=Cc2cccc(OCCOc3ccc([N+](=O)[O-])cc3)c2)C(=O)N1` [CBK126857]: the viability at 28.5 h, 10 µM stood at 95.7%.
